The values that follow come from patent US7705012B2, “Camptothecins conjugated in position 7 to cyclic peptides as cytostatic agents” (priority 2004, dated 2010).

Values joined by “and” are separate entries in the source; they are usually repeats but may differ in a detail not shown here. Equal entries are not always repeated. Where two headings read alike, the source gives them in different places.

Assay [1] has as its system A498 human renal carcinoma. The experiment in a line: Cytotoxicity, sulphorodamine B test, A498. It is filed as cell-based. As to conditions: A498 cells, 72 h, cell survival; read-out: A498 IC50 ± SD. The procedure:
(§1) Cytotoxicity of the Conjugates on Different Tumor Cell Lines
(§2) To evaluate the effect of the compound on cell survival, the sulphorodamine B test was used. PC3 human prostate carcinoma, A498 human renal carcinoma, A2780 human ovarian carcinoma cells were used. A2780 and PC3 tumor cells were grown RPMI 1640 containing 10% fetal bovine serum (GIBCO), whereas A498 tumor cells were grown in EMEM containing 10% fetal bovine serum (GIBCO).
(§3) Tumor cells were seeded in 96-well tissue culture plates (Corning) at approximately 10% of confluence and were allowed to attach and recover for at least 24 h. […] The plates were incubated for 72 h at 37° C. At the end of the treatment, the plates were washed by remotion of the surnatant and addition of PBS 3 times. 200 μl PBS and 50 μl of cold 80% TCA were added. The plates were incubated on ice for at least 1 h. TCA was removed, the plates were washed 3 times for immersion in distilled-water and dried on paper and at 40° C. for 5 min. Then 200 μl of 0.4% sulphorodamine B in 1% acetic acid were added. The plates were incubated at room temperature for other 30 min. Sulphorodamine B was removed, the plates were washed for immersion in 1% acetic acid for 3 times, then they were dried on paper and at 40° C. for 5 min. Then 200 μl Tris 10 mM were added, the plates were kept under stirring for 20 min. The survival cell was determined as optical density by a Multiskan spectrofluorimeter at 540 nm. The amount of cells killed was calculated as the percentage decrease in sulphorodamine B binding compared with control cultures. The IC50 values were calculated with the “ALLFIT” program.

Assay [2] has as its system PC3 human prostate carcinoma. Kind of assay: Cytotoxicity, sulphorodamine B test, PC3. As to conditions: PC3 cells, 72 h, cell survival; read-out: PC3 IC50 ± SD. Format: cell-based. The procedure: as §1, §2, §3
In assay [3] the target is T1, purified αvβ5 receptor (Homo sapiens, UniProt P06756+P18084).
T1 construct: purchased Chemicon CC1020
Kind of assay: Binding to integrin αvβ5 receptors ([125I]echistatin competition). The procedure: Binding to Integrin αvβ5 Receptors
(§4) An aliquot of 100 μl was added to 96-well plates and incubated overnight at +4° C. Plates were washed once with buffer (50 mM Tris, pH 7.4, 100 mM NaCl, 2 mM CaCl2, 1 mM MgCl2, 1 mM MnCl2, 1% bovine serum albumin) and then incubated for another 2 hours at room temperature. Plates were washed twice with the same buffer and incubated for 3 hours at room temperature with the radioactive ligand [^125I]echistatin (Amersham Pharmacia Biotech) 0.15 nM in the presence of competition ligands. At the end of incubation, the wells were washed and the radioactivity determined using a gamma counter (Packard). Non-specific ligand binding was determined in the presence of excess cold echistatin (1 μM).
(§5) Evaluation of IC50 Parameters
(§6) The IC50 parameter was elaborated using “ALLFIT” software.

Assay [4] has as its system A2780 human ovarian carcinoma cells. Kind of assay: Cytotoxicity, sulphorodamine B test, A2780. It is filed as cell-based. The note with it: 72 h, cell survival, read-out: A2780 IC50 ± SD. The procedure:
as §1, §2, §3

In assay [5] the target is T2, purified αvβ3 receptor (Homo sapiens, UniProt P05106+P06756).
T2 construct: purchased Chemicon CC1020
The experiment in a line: Binding to integrin αvβ3 receptors ([125I]echistatin competition). The procedure: Binding to Integrin αvβ3 Receptors
as §4, with “7,4,” for “7.4,”, “0.05” for “0.15”, “Non-specific binding of the” for “Non-specific”, “ligand” for “ligand binding”
as §5, §6

The IC50 is the point on the concentration scale where inhibition reaches its midpoint. Regarding `CC[C@@]1(O)C(=O)OCc2c1cc1n(c2=O)Cc2c-1nc1ccccc1c2/C=N\OCCNC(=O)COCCOCCOCC(=O)NCc1ccc(C[C@@H]2NC(=O)[C@@H](Cc3ccccc3)NC(=O)[C@H](CC(=O)O)NC(=O)CNC(=O)[C@H](CCCNC(=N)N)NC2=O)cc1` [ST2742], the IC50 was 740 nM and 700 nM in assay [1]; 27000 ± 3900 nM in assay [2]; 6.5 ± 0.03 nM in assay [3]; 180 ± 10 nM in assay [4]; 12.5 ± 2.1 nM in assay [5].
Regarding `CC[C@@]1(O)C(=O)OCc2c1cc1n(c2=O)Cc2c-1nc1ccccc1c2/C=N\OCCNC(=O)CCC(=O)NCc1ccc(C[C@@H]2NC(=O)[C@@H](Cc3ccccc3)NC(=O)[C@H](CC(=O)O)NC(=O)CNC(=O)[C@H](CCCNC(=N)N)NC2=O)cc1` [ST2724], the IC50 was 4300 nM in assay [1]; 4700 ± 400 nM in assay [2]; 8.39 ± 0.07 nM in assay [3]; 160 ± 1 nM in assay [4]; 7.27 ± 0.06 nM in assay [5].
`CC[C@@]1(O)C(=O)OCc2c1cc1n(c2=O)Cc2c-1nc1ccccc1c2/C=N\OCCNC(=O)CCC[C@@H]1NC(=O)[C@@H](Cc2ccccc2)NC(=O)[C@H](CC(=O)O)NC(=O)CNC(=O)[C@H](CCCNC(=N)N)NC1=O` [ST2686]: the 50% inhibitory concentration (IC50) in assay [1] worked out at 3200 nM; in assay [2], 15000 ± 1500 nM; in assay [3] (inhibition of specific [125I]echistatin 0.15 nM binding, 3 hours at room temperature, read-out: αvβ5 IC50 ± SD) it was 0.37 ± 0.01 nM; in assay [4] it was 400 ± 30 nM; in assay [5] (inhibition of specific [125I]echistatin 0.05 nM binding, 3 hours at room temperature, read-out: αvβ3 IC50 ± SD), 0.59 ± 0.01 nM.
